pEC50: −log10 of the molar value. Like-named read-outs stand apart in the source and are kept apart here. Values belong to the compound of their own block, whether it stands above or below them.
Legend:
Assay type in all cases: cell-based, human
RPMI-8226 = assay: ATP luminescence proliferation assay, RPMI-8226; details: ATP luminescence, RPMI-8226, 72 h incubation, read-out: EC50 RPMI-8226 (72 h)
Procedure, shortened: (§1)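 Cells seeded at 1.0×10^3 cells/well for 3 h, then exposed to 1:3 serial dilutions of free compounds or conjugates for 48, 72 or 96 h as noted. ATP measured by Glo luminescent viability kit; EC50 taken as concentration reducing proliferation by 50%.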

SK-BR3 = assay: ATP luminescence proliferation assay, SK-BR3; details: ATP luminescence, SK-BR3, 72 h incubation, read-out: EC50 SK-BR3 (72 h)
Procedure, shortened: as §1

MDA-MB-231 = assay: 3H thymidine proliferation assay, MDA-MB-231; details: 3H thymidine method, 72 h incubation, read-out: EC50, MDA-MB-231
Procedure, shortened: (§2)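 Cells were seeded at 1.0×10^4 cells/well and treated with 1:3 serial dilutions of free compound or conjugate for 72 h. ^3H-thymidine (1.0 μCi/well) was pulsed for the final 24 h, and uptake was measured by scintillation counting. EC50 is the concentration reducing proliferation by 50%.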

786-O = assay: ATP luminescence proliferation assay, 786-O; details: ATP luminescence, 786-O, 48 h incubation, read-out: EC50 786-O (48 h)
Procedure, shortened: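 Cells seeded at 1.0×10^3 cells/well for 3 h, then exposed to 1:3 serial dilutions of free compounds or conjugates for 48, 72 or 96 h, as noted. ATP measured by luminescent cell viability kit; EC50 taken as concentration reducing proliferation by 50%.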

A549 = assay: 3H thymidine proliferation assay, A549; details: 3H thymidine method, 72 h incubation, read-out: EC50, A549
Procedure, shortened: as §2

UO-31 = assay: ATP luminescence proliferation assay, UO-31; details: ATP luminescence, UO-31, 48 h incubation, read-out: EC50 UO-31 (48 h)
Procedure, shortened: as §1

SKOV3 = assay: 3H thymidine proliferation assay, SKOV3; details: 3H thymidine method, 72 h incubation, read-out: EC50, SKOV3
Procedure, shortened: as §2

PC3 = assay: ATP luminescence proliferation assay, PC3; details: ATP luminescence, PC3, 48 h incubation, read-out: EC50 PC3 (48 h)
Procedure, shortened: as §1

U-87 MG [1] = assay: 3H thymidine proliferation assay, U-87 MG; details: 3H thymidine method, 72 h incubation, read-out: EC50, U-87 MG
Procedure, shortened: as §2

HCT-15 = assay: 3H thymidine proliferation assay, HCT-15; details: 3H thymidine method, 72 h incubation, read-out: EC50, HCT-15
Procedure, shortened: as §2

ZR-75 = assay: 3H thymidine proliferation assay, ZR-75; details: 3H thymidine method, 72 h incubation, read-out: EC50, ZR-75
Procedure, shortened: as §2

SW-620 = assay: ATP luminescence proliferation assay, SW-620; details: ATP luminescence, SW-620, 96 h incubation, read-out: EC50 SW-620 (96 h)
Procedure, shortened: as §1

CEM-C1 = assay: 3H thymidine proliferation assay, CEM-C1; details: 3H thymidine method, 72 h incubation, read-out: EC50, CEM-C1
Procedure, shortened: as §2

Hep3B = assay: 3H thymidine proliferation assay, Hep3B; details: 3H thymidine method, 72 h incubation, read-out: EC50, Hep3B
Procedure, shortened: as §2

NCI-H460 = assay: 3H thymidine proliferation assay, NCI-H460; details: 3H thymidine method, 72 h incubation, read-out: EC50, NCI-H460
Procedure, shortened: as §2

U-87 MG [2] = assay: ATP luminescence proliferation assay, U-87 MG; details: ATP luminescence, 72 h incubation, read-out: EC50 U-87 MG (72 h)
Procedure, shortened: as §1

OVCAR3 = assay: ATP luminescence proliferation assay, OVCAR3; details: ATP luminescence, OVCAR3, 48 h incubation, read-out: EC50 OVCAR3 (48 h)
Procedure, shortened: as §1

Raji = assay: ATP luminescence proliferation assay, Raji; details: ATP luminescence, 72 h incubation, read-out: EC50 Raji (72 h)
Procedure, shortened: as §1

pEC50 (RPMI-8226; Homo sapiens): 6.46 | pEC50 (SK-BR3; Homo sapiens, SK-BR-3): 6.36 | pEC50 (MDA-MB-231; Homo sapiens, MDA-MB-231): 6.88 | pEC50 (786-O; Homo sapiens, 786-0): 6.44 | pEC50 (A549; Homo sapiens, A549): 6.89 | pEC50 (SKOV3; Homo sapiens, SK-OV-3): 6.79 | pEC50 (PC3; Homo sapiens, PC-3): 5.97 | pEC50 (U-87 MG [1]; Homo sapiens, U-87 MG): 6.97 | pEC50 (HCT-15; Homo sapiens, HCT-15): 6.83 | pEC50 (SW-620; Homo sapiens): 6.84 | pEC50 (Hep3B; Homo sapiens, Hep3B): 7.36 | pEC50 (NCI-H460; Homo sapiens, NCI-H460): 7.00 | pEC50 (U-87 MG [2]; Homo sapiens): 6.49 | pEC50 (OVCAR3; Homo sapiens, OVCAR-3): 6.20 | pEC50 (Raji; Homo sapiens): 6.52
Compound: COc1cccc2c1C(=O)c1c(O)c3c(c(O)c1C2=O)C[C@@](O)(C(=O)CO)C[C@@H]3O[C@H]1C[C@H](N)[C@H](O)[C@H](C)O1 [Dox, doxorubicin, reference compound]
pEC50 (UO-31; Homo sapiens): 6.04 | pEC50 (ZR-75; Homo sapiens, ZR75): 6.10 | pEC50 (CEM-C1; Homo sapiens, CEM/C1): 6.84

Compound: CC[C@H](C)[C@H](NC(=O)[C@H]1CCCCN1C)C(=O)N(COC(=O)CC(C)C)[C@H](C[C@@H](OC(C)=O)c1nc(C(=O)N[C@@H](Cc2ccccc2)C[C@H](C)C(=O)O)cs1)C(C)C [Tub D, tubulysin D, reference compound]
pEC50 (RPMI-8226): 11.29 | pEC50 (SK-BR3): 10.60 | pEC50 (MDA-MB-231): 10.04 | pEC50 (786-O): 10.66 | pEC50 (A549): 10.85 | pEC50 (UO-31): 10.00 | pEC50 (SKOV3): 10.41 | pEC50 (PC3): 10.41 | pEC50 (U-87 MG [1]): 10.85 | pEC50 (HCT-15): 10.21 | pEC50 (ZR-75): 8.77 | pEC50 (SW-620): 11.24 | pEC50 (CEM-C1): 10.74 | pEC50 (Hep3B): 10.66 | pEC50 (NCI-H460): 10.49 | pEC50 (U-87 MG [2]): 11.27 | pEC50 (OVCAR3): 10.07 | pEC50 (Raji): 11.32
